Source: ChEMBL document CHEMBL2311510, “A new single-photon emission computed tomography (SPECT) imaging agent for serotonin transporters: [(125)I]Flip-IDAM, (2-((2-((dimethylamino)methyl)-4-iodophenyl)thio)phenyl)methanol” (Bioorg Med Chem Lett, 2013)

Key:
[1] = molecular target: T1, Sodium-dependent serotonin transporter (Homo sapiens, UniProt P31645); test: Inhibition of […] uptake at SERT (unknown origin) expressed in LLC-PK1 cell membranes; assay type: cell-based
Target sequence in this assay (P31645 whole entry): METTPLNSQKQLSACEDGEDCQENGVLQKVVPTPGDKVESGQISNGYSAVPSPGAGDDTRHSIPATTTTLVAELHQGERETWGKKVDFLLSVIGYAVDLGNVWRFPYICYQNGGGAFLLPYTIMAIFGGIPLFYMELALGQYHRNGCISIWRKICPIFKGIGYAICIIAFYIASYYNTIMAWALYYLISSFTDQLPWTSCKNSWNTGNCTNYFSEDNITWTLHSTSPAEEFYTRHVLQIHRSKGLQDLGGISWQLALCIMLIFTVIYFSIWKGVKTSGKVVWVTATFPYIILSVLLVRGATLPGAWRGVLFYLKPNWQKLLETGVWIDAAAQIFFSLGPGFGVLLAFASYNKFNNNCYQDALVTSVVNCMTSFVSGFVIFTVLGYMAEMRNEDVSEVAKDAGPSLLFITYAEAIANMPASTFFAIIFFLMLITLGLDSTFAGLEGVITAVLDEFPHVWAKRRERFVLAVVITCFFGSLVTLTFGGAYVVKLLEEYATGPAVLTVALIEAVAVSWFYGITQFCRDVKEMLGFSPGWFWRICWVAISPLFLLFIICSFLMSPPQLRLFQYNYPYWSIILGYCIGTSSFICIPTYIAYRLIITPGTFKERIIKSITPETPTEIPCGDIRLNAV

Nucleic Acid = test: Ratio of drug level in hypothalamus to cerebellum in rat measured 60 mins compound dose; assay type: ADME, tissue-based; details: in vivo, 1 h
[2] = molecular target: T1, Sodium-dependent serotonin transporter; test: Binding affinity to SERT (unknown origin)
Target sequence in this assay (P31645 whole entry): as above

[3] = molecular target: T1, Sodium-dependent serotonin transporter; test: biochemical; assay type: cell-based, LLC-PK1
Target sequence in this assay (P31645 whole entry): as above
Description: Inhibition of [125I]IDAM uptake at SERT (unknown origin) expressed in LLC-PK1 cell membranes

[4] = molecular target: T1, Sodium-dependent serotonin transporter; test: Potency index, ratio of Ki of Flip-ADAM to Ki of compound for SERT (unknown origin)
Target sequence in this assay (P31645 whole entry, looked up): as the sequence (P31645 whole entry) above

[5] = molecular target: T1, Sodium-dependent serotonin transporter; test: Potency index, ratio of Ki of IDAM to Ki of compound for SERT (unknown origin)
Target sequence in this assay (P31645 whole entry, looked up): as the sequence (P31645 whole entry) above

Row | Compound | Ki [2] | Ki [3] | further results
1 | CN(C)Cc1ccccc1Sc1ccc(I)cc1CO | – | – | Ki [1]: 0.1 nM
2 | CN(C)Cc1ccccc1Sc1ccc([123I])cc1CO | 0.097 nM | – | Ratio (Nucleic Acid): 2.76
3 | CN(C)Cc1cc(I)ccc1Sc1ccccc1N | – | 1 nM | –
4 | CN(C)Cc1ccccc1Sc1ccc([123I])cc1N | 0.013 nM | – | –
5 | O=C(OCCF)[C@H]1[C@@H](c2ccc(/C=C\I)cc2)C[C@H]2CC[C@H]1N2 | 0.08 nM | – | –
6 | CN(C)Cc1cc(I)ccc1Sc1ccccc1CO | – | 0.03 nM | Ratio Ki [4]: 33; Ratio Ki [5]: 3
